For series [1], the target named is T1, Human recombinant MAO-A (hMAO-A) (Homo sapiens, UniProt P21397).
T1 construct: purchased Sigma Aldrich; host or cells: insect cells
T1 sequence (P21397 1-527): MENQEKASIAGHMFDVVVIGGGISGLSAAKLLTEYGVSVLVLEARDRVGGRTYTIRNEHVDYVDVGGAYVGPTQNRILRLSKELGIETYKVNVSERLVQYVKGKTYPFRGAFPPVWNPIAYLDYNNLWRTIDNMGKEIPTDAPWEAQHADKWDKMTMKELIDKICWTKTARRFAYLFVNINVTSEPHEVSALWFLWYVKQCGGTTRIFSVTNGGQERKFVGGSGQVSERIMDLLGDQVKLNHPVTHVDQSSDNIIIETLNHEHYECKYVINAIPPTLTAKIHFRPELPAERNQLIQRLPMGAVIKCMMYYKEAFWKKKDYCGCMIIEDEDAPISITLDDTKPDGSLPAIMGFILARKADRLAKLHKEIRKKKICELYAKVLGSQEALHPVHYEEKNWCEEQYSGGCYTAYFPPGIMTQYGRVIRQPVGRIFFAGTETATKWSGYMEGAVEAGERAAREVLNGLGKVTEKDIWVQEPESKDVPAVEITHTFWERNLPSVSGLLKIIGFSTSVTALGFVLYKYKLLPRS
Kind of series: MAO-A enzyme assay (Amplex Red), selectivity. It is filed as biochemical. The method, then:
(§1) Biological evaluation of the synthesized melatonin derivatives over both MAO-A and MAO-B was performed as reported previously. A detailed description of the protocol is in the Supplementary Materials.
(§2) 6. Materials and methods of monoamine oxidase (MAO) enzyme assay
(§3) The inhibitory activity of MAO-A, B enzyme of the compounds was evaluated based on previously described method. The MAO activity was measured in relative fluorescence units (RFU) evoked by peroxidase-catalyzed oxidation of Amplex Red® to resorufin, in which H2O2 generated by MAO reaction was used as the […]. Human recombinant MAO-A (hMAO-A) and MAO-B (hMAO-B) enzyme expressed in insect cells were obtained from Sigma Aldrich. The 2 μL of test compound in DMSO (final concentration: 1 nM – 10 μM) was treated with 98 μL of hMAO enzyme solution in 50 mM sodium phosphate buffer (pH 7.4, final protein amounts: ~1.25 μg protein/well for MAO-A and ~2.5 μg protein/well for MAO -B) on 96-well black plate and incubated for 15 min at 37 °C. Then 100 μL of reaction working solution which is mixed solution of 400 μM Amplex Red® (Cayman, final concentration: 200 μM), 2 U/mL horseradish peroxidase ( Sigma-Aldrich, final concentration: 1 U/mL) and 2 mM substrate ( p-tyramine for MAO -A, benzylamine for MAO -B, Sigma-Aldrich, final concentration: 1 mM) in 50 mM sodium phosphate buffer (pH 7.4) were added and incubated for 20 min at 37 °C in the dark. The fluorescent intensity was quantified using a microplate reader (SpectraMax®i3, Molecular Device) with an excitation at 545 nm and an emission at 590 nm. The 50% inhibitory concentrations (IC50) of compounds were determined as the mean ± S.E.M. in triplicate from the dose-response inhibition curves using SigmaPlot® 13.0.
monoamine oxidase inhibitors. Bioorganic & medicinal chemistry 2015, 23, 6486-6496,

The target of series [2] is T2, Human recombinant MAO-B (hMAO-B) (Homo sapiens, UniProt P27338).
T2 construct: purchased Sigma Aldrich; host or cells: insect cells
T2 sequence (P27338 1-520): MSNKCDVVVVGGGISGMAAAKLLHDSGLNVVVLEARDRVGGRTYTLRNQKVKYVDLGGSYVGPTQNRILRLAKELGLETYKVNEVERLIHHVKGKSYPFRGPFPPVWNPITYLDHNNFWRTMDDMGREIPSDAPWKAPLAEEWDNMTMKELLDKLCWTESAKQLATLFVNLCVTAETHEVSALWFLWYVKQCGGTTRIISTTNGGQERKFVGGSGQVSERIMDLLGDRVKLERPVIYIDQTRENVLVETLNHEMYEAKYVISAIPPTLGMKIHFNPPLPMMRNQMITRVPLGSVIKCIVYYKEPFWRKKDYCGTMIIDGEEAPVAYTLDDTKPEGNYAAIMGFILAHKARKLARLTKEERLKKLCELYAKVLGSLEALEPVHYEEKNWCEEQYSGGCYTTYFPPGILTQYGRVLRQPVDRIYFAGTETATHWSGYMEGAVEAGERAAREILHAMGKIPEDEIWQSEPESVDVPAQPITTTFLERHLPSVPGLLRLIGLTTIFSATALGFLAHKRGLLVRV
Nature of the series: MAO-B enzyme assay (Amplex Red, resorufin fluorescence). It is filed as biochemical. Particulars: for Selectivity Index (SI): IC50 (MAO-A)/IC50 (MAO-B); for IC50: five doses 10-0.001 µM, triplicate; for inhibition at 10 µM: single dose 10 µM. As to the method: as §1
First, the synthesized melatonin analogues (3a–x) were biologically evaluated over an MAO-B recombinant enzyme. The experiment was performed using Amplex® Red reagent technology. This technology offers quantitative enzyme activity sensitive detection, a wider dynamic range, and fluorescence emission outside the range of compound autofluorescence (if any). The Amplex® Red reagent is a colorless substrate that reacts with H2O2 in a 1:1 stoichiometry to produce a highly fluorescent resorufin; therefore, the induced inhibitory effects of the melatonin analogues over MAO-B were examined via spectrophotometry where the fluorescence rate of resorufin dye formation was measured.
Accordingly, compounds 3n, 3r, and 3u–w were further tested to determine their IC50 values over MAO-B in triplicate from the dose–response inhibition curves using Sigma-Plot software 13.0.
as §2
as §3, with “13.0. […]” for “13.0.”

Series [3] is described as follows: Neuroprotection against 6-OHDA-induced oxidative toxicity in PC12 cells (MTT). Particulars: rat. As to the method:
(§4) Control cells were incubated in an equivalent volume of DMSO to a final concentration of 0.3%. Neuroprotective effects of the tested compounds on the toxicity induced by 6-OHDA or rotenone in PC12 cells were evaluated as described previously with slight modifications. In brief, cells were pre-treated with the tested compounds or rasagiline at the indicated concentrations for 4 h. Next, they were exposed to 6-OHDA (50 μM) or rotenone (1 μM) for 24 h. In another set of experiments, the influence of HO-1 inhibitor, ZnPP, on the neuroprotective effects of the tested compounds against 6-OHDA-induced oxidative damage was investigated as previously reported. Briefly, the cells were pre-treated with the tested compounds for 4 h and then incubated with 0.2 µM of ZnPP for 30 min. Subsequently, 6-OHDA was added at a final concentration of 50 µM and incubated for 24 h.
After the desired treatment, cell viability was determined by MTT assay as described previously. Briefly, MTT was added to the cells at the final concentration of 0.5 mg/mL, which was followed by incubation for 3 h at 37 °C. […] The absorbance of the dissolved solution was measured at 550 nm using a microplate reader (SpectraMax M2^e, Molecular Devices, Sunnyvale, CA, USA). The cell viability was presented as the percentage of the absorbance measured in the vehicle-treated control cells.

Series [4] relates to MAO-B. On the set-up: method as in PMID 32752896. Particulars: cited from earlier work.
Series [5] in a line: Neuroprotection against rotenone-induced toxicity in PC12 cells (MTT). Particulars: rat. As to the method: as §4
After the desired treatment, cell viability was determined by MTT assay as described previously. Briefly, MTT was added to the cells at the final concentration of 0.5 mg/mL, which was followed by incubation for 3 h at 37 °C. The supernatants were carefully removed, and then, 300 μL of DMSO was added to each well to dissolve formazan precipitate. The absorbance of the dissolved solution was measured at 550 nm using a microplate reader (SpectraMax M2^e, Molecular Devices, Sunnyvale, CA, USA). The cell viability was presented as the percentage of the absorbance measured in the vehicle-treated control cells.

Consider six compounds from publication PMC8533333, “Melatonin Analogues Potently Inhibit MAO-B and Protect PC12 Cells against Oxidative Stress” (Antioxidants, 2021).

As for `O=C(Nc1ccc2[nH]ccc2c1)c1cccc(C(F)(F)F)c1` [3u, N-(1H-indol-5-yl)-3-(trifluoromethyl)benzamide], the melting point (usually the temperature of the solid-liquid transition) was 148 to 150 °C. In addition, the half-inhibitory concentration (IC50) (usually the concentration at which inhibition is half-maximal) in series [1] was above 100000 nM. In series [2], the “Selectivity Index (SI)” value is above 83; the IC50 stood at 1200 nM; the inhibition (in general, the share of the control response that was lost under treatment) at 10 µM is 85.12 ± 0.22%.
On the same counts, the results for `O=C(Nc1ccc2[nH]ccc2c1)c1ccc(C(F)(F)F)cc1` [3v, N-(1H-indol-5-yl)-4-(trifluoromethyl)benzamide] are 206 to 207 °C, above 100000 nM, above 151, 660 nM and 91.22 ± 0.11%.
For `O=C(Nc1ccc2[nH]ccc2c1)c1cc(Cl)cc(Cl)c1` [3w, 3,5-Dichloro-N-(1H-indol-5-yl)benzamide], the melting point lay within 199 to 201 °C. In addition, the IC50 in series [1] is above 100000 nM. Also, in series [2], the “Selectivity Index (SI)” value is above 41, the half-maximal inhibitory concentration (IC50) turned out to be 2410 nM and the inhibition at 10 µM turned out to be 72.63 ± 0.32%.
Turning to `NCCc1cc(O)c(O)cc1O` [6-OHDA, 6-Hydroxydopamine], in series [3], the viability (in general, a read-out of living cells in per cent, often relative to untreated cells) at 24 h, 50 µM came to 50.9 ± 3.1%.
`O=C(Nc1ccc2c(ccn2C(=O)c2cccc(F)c2)c1)c1cnccn1` [N-(1-(3-fluorobenzoyl)-1H-indol-5-yl)pyrazine-2-carboxamide]: the half-inhibitory concentration (IC50) in series [4] was 780 nM. Also, in series [4] (competitive), the inhibition constant Ki (as a rule, a dissociation constant, usually derived from enzyme kinetics or from competition with a known ligand) was 94.5 nM.
As to `C=C(C)[C@H]1Cc2c(ccc3c2O[C@@H]2COc4cc(OC)c(OC)cc4[C@@H]2C3=O)O1` [rotenone, reference compound], the viability at 24 h, 1 μM in series [5] turned out to be 64.4 ± 1.4%.
